In paper PMC12168616, “Machine Learning‐Assisted Prediction and Generation of Antimicrobial Peptides” (Small Science, 2025):
Converted amounts (≈) assume the structure as drawn. Read-outs that look alike come from different tables or passages of the source. Ends that are not written are not given here. Peptide text beside a SMILES is read from it.

Tests used:
[1] = system: A. Baumannii AB5075; format: cell-based, Acinetobacter baumannii
Description: (§1) To evaluate the susceptibility of the different peptide sequences against clinical isolates of various bacterial pathogens, we used the minimum inhibitory concentration (MIC) assay. The MIC measures the efficacy of peptides in inhibiting bacterial growth. The specific MIC values of various peptides against Enterococcus […] ATCC19433, Staphylococcus aureus ATCC25923, Klebsiella pneumoniae ATCC43816, Acinetobacter baumannii AB5075, Pseudomonas aeruginosa PAO1, and Enterobacter species ATCC13048 were determined by measuring optical density at 600 nm (OD600 nm). […] The growth inhibition curves were used to estimate the MIC values.
(§2) Bacteria: The MIC was the lowest concentration of a drug, which inhibited the visible growth of a bacteria and could be determined by reading the absorption at 600 nm (OD600 nm) using a spectrophotometer. The peptides were subjected to antibacterial testing against gram‐positive and gram‐negative pathogens. All the ESKAPE pathogens (E. faecalis ATCC19433, S. aureus ATCC25923, K. pneumoniae ATCC43816, A. baumannii AB5075, P. aeruginosa PAO1, and E. aerogenes ATCC13048) were inoculated from nutrient agar plates to obtain a bacterial suspension by incubating the colony of bacteria in a flask containing 10 mL of Mueller Hinton broth II (MHB) at 37 °C for 24 h with gentle shaking (75 rpm). The bacterial suspensions were then diluted in MHB to 1 × 10^6 colony‐forming units (CFU) of bacteria mL^−1. Next, using serial dilutions in 96‐well plates, different concentrations of each peptide from 1.5–400 μM were prepared. 100 μL of peptide solutions at final concentration ranging between 0.75–200 μM were then added to a 96‐well plate containing 100 μL of diluted bacterial suspension. After 18–24 h incubation at 37 °C, the turbidity of the samples was observed, and the optical density of bacteria was measured using OD600 nm. All assays were performed in duplicates. The MICs were calculated as ≥90% inhibition of bacteria growth compared to the positive control wells.

[2] = system: S. Aureus ATCC25923; format: cell-based, Staphylococcus aureus
Description: as §1, §2

[3] = system: P. Aeruginosa PAO1; format: cell-based, Pseudomonas aeruginosa
Description: as §1, §2

[4] = system: E. Faecalis ATCC19433; format: cell-based, Enterococcus faecalis
Description: as §1, §2

[5] = system: E. Aerogenes ATCC13048; format: cell-based, Enterobacter aerogenes
Description: as §1, §2

[6] = system: K. Pneumoniae ATCC43816; format: cell-based, Klebsiella pneumoniae
Description: as §1, §2

[7] = broth microdilution, Mueller Hinton broth II, peptide 0.75–200 μM, 18–24 h at 37 °C, OD600 nm, MIC = ≥90% inhibition, duplicates

Compound	MIC A. Baumannii AB5075 ([1]; AB5075) [µM]	MIC S. Aureus ATCC25923 ([2]; ATCC25923) [µM]	MIC P. Aeruginosa PAO1 ([3]; PAO1) [µM]	MIC E. Faecalis ATCC19433 ([4]; ATCC19433) [µM]	MIC E. Aerogenes ATCC13048 ([5]; ATCC13048) [µM]	MIC K. Pneumoniae ATCC43816 ([6]; ATCC43816) [µM]	other results
CC[C@H](C)[C@H](NC(=O)[C@H](CCC(N)=O)NC(=O)[C@@H]1CCCN1C(=O)[C@H](Cc1ccccc1)NC(=O)[C@H](CCCCN)NC(=O)[C@H](CCCCN)NC(=O)CNC(=O)[C@H](Cc1ccccc1)NC(=O)[C@@H](N)Cc1c[nH]c2ccccc12)C(=O)N[C@@H](C)C(=O)N[C@@H](CS)C(=O)N[C@@H](CCCCN)C(=O)N[C@@H](CCCNC(=N)N)C(=O)N[C@@H](CS)C(=O)N[C@@H](CS)C(N)=O [MLWH 43] (H-WFGKKFPQIACKRCC-NH2)	25 (≈ 45.4 µg/mL)	–	–	–	–	–	–
AIVKKGWIKILAWVF-NH2 [MLWH 36]	–	6	200	100	100	100	–
ALFLGGIWKKLPKAI-NH2 [MLWH02]	100	–	100	–	–	–	–
ALKAKLKFPGKFLFK-NH2 [MLWH 25]	100	–	200	–	200	100	–
AVLIAKLFHKLNKIK-NH2 [MLWH 15]	100	–	200	200	–	200	–
AWLKFKKKFGLFAKI-NH2 [MLWH11]	12.5	100	25	25	12.5	12.5	–
FLPLIILKFIGKLLP-NH2 [MLWH 19]	200	3	–	1.5	–	–	–
FNKGKKFFFKFIKWV [MLWH73, peptide generated using algorithm, list 2]	–	–	–	–	–	–	MIC S. Aureus ATCC25923 [2, 7]: 25 µM; MIC A. Baumannii AB5075 [1, 7]: 12.5 µM; MIC P. Aeruginosa PAO1 [3, 7]: 25 µM; MIC E. Faecalis ATCC19433 [4, 7]: 25 µM; MIC E. Aerogenes ATCC13048 [5, 7]: 25 µM; MIC K. Pneumoniae ATCC43816 [6, 7]: 12.5 µM
FVTITLKNFAKKKVG-NH2 [MLWH 28]	200	–	–	–	200	200	–
GGAFFKLTQKIIKKA-NH2 [MLWH07]	50	–	200	–	–	200	–
GIKIIGIKVATFLKA-NH2 [MLWH03]	–	–	–	–	–	200	–
GKIFGKLFLALIKMW-NH2 [MLWH06]	25	25	200	12.5	200	–	–
GLLTTGKKKLLGIIA-NH2 [MLWH 26]	200	–	–	–	–	–	–
GLWKIKLAFGKMFAK-NH2 [MLWH05]	12.5	100	25	25	25	25	–
GPLMGAFIKKLLPKF-NH2 [MLWH 48]	25	–	100	200	200	100	–
